Target: T1, SYK kinase (Homo sapiens, UniProt P43405)
T1 construct: purchased Invitrogen, Carlsbad
Test: SYK assay (OMNIA Kinase Assay, Invitrogen)
Format: biochemical
Settings: SYK Activities; 1 mM ATP, 10 μM Omnia Peptide Substrate Tyr 7, 30° C.
Summary of the method: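 SYK was added last to start phosphorylation of a chelation-enhanced SOX peptide substrate (10 μM) in the presence of 1 mM ATP and 0.2 mM DTT at 30° C. Kinetic readings at λex 360/λem 485 nm over 30 min gave velocities, fitted sigmoidally against compound concentration to give IC50.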

Row | Compound | IC50 [nM]
1 | COc1cc(Nc2nc(C3C4CCCCC43)nc3cn[nH]c23)ccc1N1CCOCC1 (stereo not shown) [Example 475, 5-(bicyclo[4.1.0]heptan-7-yl)-N-(3-methoxy-4-morpholinophenyl)-1H-pyrazolo[4,3-d]pyrimidin-7-amine] | 100 to 1000
2 | COc1cc(Nc2nc(-c3c(F)cccc3F)nc3cn[nH]c23)ccc1N1CCOCC1 [Example 12, 5-(2,6-difluorophenyl)-N-(3-methoxy-4-morpholinophenyl)-1H-pyrazolo[4,3-d]pyrimidin-7-amine] | < 10
3 | c1nn(C2CC2)cc1Nc1nc(-c2ccc3cn[nH]c3c2)nc2cn[nH]c12 [Example 418, N-(1-cyclopropyl-1H-pyrazol-4-yl)-5-(1H-indazol-6-yl)-1H-pyrazolo[4,3-d]pyrimidin-7-amine] | < 10
4 | CC(=O)N1CCN(c2ccc(Nc3nc(C4(C)CC4)nc4cn[nH]c34)cc2)CC1 [Example 100, 1-(4-(4-((5-(1-methylcyclopropyl)-1H-pyrazolo[4,3-d]pyrimidin-7-yl)amino)phenyl)piperazin-1-yl)ethan-1-one] | 100 to 1000
5 | CC(C)(C)N1CCN(c2ccc(Nc3nc(-c4ccc5cn[nH]c5c4)nc4cn[nH]c34)cc2)CC1 [Example 45, N-(4-(4-(tert-butyl)piperazin-1-yl)phenyl)-5-(1H-indazol-6-yl)-1H-pyrazolo[4,3-d]pyrimidin-7-amine] | < 10
6 | CC(C(=O)O)n1cc(Nc2nc(-c3ccoc3)nc3cn[nH]c23)cn1 (stereo not shown) [Example 486, 2-(4-((5-(furan-3-yl)-1H-pyrazolo[4,3-d]pyrimidin-7-yl)amino)-1H-pyrazol-1-yl)propanoic acid] | 100 to 1000
7 | c1nn(C2CCOCC2)cc1Nc1nc(C2CCC2)nc2cn[nH]c12 [Example 119, 5-cyclobutyl-N-(1-(tetrahydro-2H-pyran-4-yl)-1H-pyrazol-4-yl)-1H-pyrazolo[4,3-d]pyrimidin-7-amine] | 10 to 100
8 | O=C1CCCc2ccc(Nc3nc(-c4c(F)cccc4F)nc4cn[nH]c34)cc2N1 [Example 521, 8-((5-(2,6-difluorophenyl)-1H-pyrazolo[4,3-d]pyrimidin-7-yl)amino)-4,5-dihydro-1H-benzo[b]azepin-2(3H)-one] | 100 to 1000
9 | CC(C)n1cc(Nc2nc(C3CCC3)nc3cn[nH]c23)cn1 [Example 223, 5-cyclobutyl-N-(1-isopropyl-1H-pyrazol-4-yl)-1H-pyrazolo[4,3-d]pyrimidin-7-amine] | < 10
10 | CC(C)(C)n1cc(Nc2nc(C3CC3)nc3cn[nH]c23)cn1 [Example 228, N-(1-(tert-butyl)-1H-pyrazol-4-yl)-5-cyclopropyl-1H-pyrazolo[4,3-d]pyrimidin-7-amine] | 10 to 100
11 | COCCCn1cc(Nc2nc(C(C)(C)C)nc3cn[nH]c23)cn1 [Example 270, 5-(tert-butyl)-N-(1-(3-methoxypropyl)-1H-pyrazol-4-yl)-1H-pyrazolo[4,3-d]pyrimidin-7-amine] | 100 to 1000
12 | CC(c1ccccc1)n1cc(Nc2nc(-c3ccc4cn[nH]c4c3)nc3cn[nH]c23)cn1 (stereo not shown) [Example 477, 5-(1H-indazol-6-yl)-N-(1-(1-phenylethyl)-1H-pyrazol-4-yl)-1H-pyrazolo[4,3-d]pyrimidin-7-amine] | 100 to 1000
13 | FC(F)(F)Cn1cc(Nc2nc(-c3ccc4cn[nH]c4c3)nc3cn[nH]c23)cn1 [Example 517, 5-(1H-indazol-6-yl)-N-(1-(2,2,2-trifluoroethyl)-1H-pyrazol-4-yl)-1H-pyrazolo[4,3-d]pyrimidin-7-amine] | 10 to 100
14 | FCCn1cc(Nc2nc(-c3ccc4cn[nH]c4c3)nc3cn[nH]c23)cn1 [Example 417, N-(1-(2-fluoroethyl)-1H-pyrazol-4-yl)-5-(1H-indazol-6-yl)-1H-pyrazolo[4,3-d]pyrimidin-7-amine] | < 10
15 | COc1cc(Nc2nc(C3CC3)nc3cn[nH]c23)ccc1N1CCOCC1 [Example 35, 5-cyclopropyl-N-(3-methoxy-4-morpholinophenyl)-1H-pyrazolo[4,3-d]pyrimidin-7-amine] | < 10
16 | OCCN1CCN(c2ccc(Nc3nc(-c4ccoc4)nc4cn[nH]c34)cc2)CC1 [Example 442, 2-(4-(4-((5-(furan-3-yl)-1H-pyrazolo[4,3-d]pyrimidin-7-yl)amino)phenyl)piperazin-1-yl)ethan-1-ol] | 10 to 100
17 | O=C(c1ccc(Nc2nc(C3CC3)nc3cn[nH]c23)cc1F)N1CCOCC1 [Example 208, (4-((5-cyclopropyl-1H-pyrazolo[4,3-d]pyrimidin-7-yl)amino)-2-fluorophenyl)(morpholino)methanone] | 100 to 1000
18 | CC(C)n1cc(Nc2nc(-c3cnn(C)c3)nc3cn[nH]c23)cn1 [Example 420, N-(1-isopropyl-1H-pyrazol-4-yl)-5-(1-methyl-1H-pyrazol-4-yl)-1H-pyrazolo[4,3-d]pyrimidin-7-amine] | 10 to 100
19 | c1cc(N2CCOCC2)ccc1Nc1nc(-c2ccc3[nH]ncc3c2)nc2cn[nH]c12 [Example 179, 5-(1H-indazol-5-yl)-N-(4-morpholinophenyl)-1H-pyrazolo[4,3-d]pyrimidin-7-amine] | 10 to 100

Row | Compound | IC50 [nM]
20 | CC(C)(C)OC(=O)N1CCC(n2cc(Nc3nc(-c4ccco4)nc4cn[nH]c34)cn2)C1 (stereo not shown) [Example 453, tert-butyl 3-(4-((5-(furan-2-yl)-1H-pyrazolo[4,3-d]pyrimidin-7-yl)amino)-1H-pyrazol-1-yl)pyrrolidine-1-carboxylate] | 100 to 1000
21 | CN1CCN(C2CCN(C(=O)c3ccc(Nc4nc(C5CC5)nc5cn[nH]c45)cc3)CC2)CC1 [Example 53, (4-((5-cyclopropyl-1H-pyrazolo[4,3-d]pyrimidin-7-yl)amino)phenyl)(4-(4-methylpiperazin-1-yl)piperidin-1-yl)methanone] | 100 to 1000
22 | CN1CCC(n2cc(Nc3nc(-c4cnn(C)c4)nc4cn[nH]c34)cn2)CC1 [Example 190, 5-(1-methyl-1H-pyrazol-4-yl)-N-(1-(1-methylpiperidin-4-yl)-1H-pyrazol-4-yl)-1H-pyrazolo[4,3-d]pyrimidin-7-amine] | 10 to 100
23 | COc1ccc(Nc2nc(-c3c(F)cccc3F)nc3cn[nH]c23)cc1NC(C)=O [Example 523, N-(5-((5-(2,6-difluorophenyl)-1H-pyrazolo[4,3-d]pyrimidin-7-yl)amino)-2-methoxyphenyl)acetamide] | 100 to 1000
24 | O=C1CCCc2ccc(Nc3nc(-c4ccco4)nc4cn[nH]c34)cc2N1 [Example 113, 8-((5-(furan-2-yl)-1H-pyrazolo[4,3-d]pyrimidin-7-yl)amino)-4,5-dihydro-1H-benzo[b]azepin-2(3H)-one] | 10 to 100
25 | O=C(c1ccc(Nc2nc(-c3ccoc3)nc3cn[nH]c23)cc1F)N1CCOCC1 [Example 201, (2-fluoro-4-((5-(furan-3-yl)-1H-pyrazolo[4,3-d]pyrimidin-7-yl)amino)phenyl)(morpholino)methanone] | 100 to 1000
26 | CN1CCN(C(=O)c2ccc(Nc3nc(-c4c(F)cccc4F)nc4cn[nH]c34)cc2)CC1 [Example 500, (4-((5-(2,6-difluorophenyl)-1H-pyrazolo[4,3-d]pyrimidin-7-yl)amino)phenyl)(4-methylpiperazin-1-yl)methanone] | 100 to 1000
27 | CC(C)(C)N1CCN(c2ccc(Nc3nc(-c4cocn4)nc4cn[nH]c34)cc2)CC1 [Example 49, N-(4-(4-(tert-butyl)piperazin-1-yl)phenyl)-5-(oxazol-4-yl)-1H-pyrazolo[4,3-d]pyrimidin-7-amine] | 10 to 100
28 | Oc1ccccc1Nc1nc(-c2ccc3cn[nH]c3c2)nc2cn[nH]c12 [Example 506, 2-((5-(1H-indazol-6-yl)-1H-pyrazolo[4,3-d]pyrimidin-7-yl)amino)phenol] | 100 to 1000
29 | COCC(COC)n1cc(Nc2nc(-c3cccc(-c4cccnc4)c3)nc3cn[nH]c23)cn1 [Example 467, N-(1-(1,3-dimethoxypropan-2-yl)-1H-pyrazol-4-yl)-5-(3-(pyridin-3-yl)phenyl)-1H-pyrazolo[4,3-d]pyrimidin-7-amine] | 100 to 1000
30 | c1cc(N2CCOCC2)ccc1Nc1nc(-c2cn[nH]c2)nc2cn[nH]c12 [Example 394, N-(4-morpholinophenyl)-5-(1H-pyrazol-4-yl)-1H-pyrazolo[4,3-d]pyrimidin-7-amine] | 10 to 100
31 | COc1ccc(Nc2nc(-c3ccon3)nc3cn[nH]c23)cc1OC [Example 73, N-(3,4-dimethoxyphenyl)-5-(isoxazol-3-yl)-1H-pyrazolo[4,3-d]pyrimidin-7-amine] | 100 to 1000
32 | CC(C)Cn1cc(Nc2nc(-c3cccc(S(N)(=O)=O)c3)nc3cn[nH]c23)cn1 [Example 428, 3-(7-((1-isobutyl-1H-pyrazol-4-yl)amino)-1H-pyrazolo[4,3-d]pyrimidin-5-yl)benzenesulfonamide] | 10 to 100
33 | OC1CCN(c2ccc(Nc3nc(-c4c(F)cccc4F)nc4cn[nH]c34)cc2)CC1 [Example 522, 1-(4-((5-(2,6-difluorophenyl)-1H-pyrazolo[4,3-d]pyrimidin-7-yl)amino)phenyl)piperidin-4-ol] | 10 to 100
34 | c1ccc2sc(-c3nc(Nc4cnn(C5CCOCC5)c4)c4[nH]ncc4n3)nc2c1 [Example 413, 5-(benzo[d]thiazol-2-yl)-N-(1-(tetrahydro-2H-pyran-4-yl)-1H-pyrazol-4-yl)-1H-pyrazolo[4,3-d]pyrimidin-7-amine] | < 10
35 | c1csc(-c2nc(Nc3cnn(C4CCOCC4)c3)c3[nH]ncc3n2)c1 [Example 430, N-(1-(tetrahydro-2H-pyran-4-yl)-1H-pyrazol-4-yl)-5-(thiophen-2-yl)-1H-pyrazolo[4,3-d]pyrimidin-7-amine] | 10 to 100
36 | CC(=O)N1CCC(n2cc(Nc3nc(-c4nc5ccccc5s4)nc4cn[nH]c34)cn2)CC1 [Example 458, 1-(4-(4-((5-(benzo[d]thiazol-2-yl)-1H-pyrazolo[4,3-d]pyrimidin-7-yl)amino)-1H-pyrazol-1-yl)piperidin-1-yl)ethan-1-one] | < 10
37 | c1cncc(-c2nc(Nc3ccc(N4CCOCC4)cc3)c3n[nH]cc3n2)c1 [Example 162, N-(4-morpholinophenyl)-5-(pyridin-3-yl)-2H-pyrazolo[4,3-d]pyrimidin-7-amine] | 100 to 1000
